Test results published in US6492389B1, “Small molecule inhibitors of BCL-2 proteins” (Thomas Jefferson University, priority 1998, dated 2002).
Entries after “also recorded” stand apart in the source; their conditions may differ.

Assays:
Bcl-2 protein = target: T1, Bcl-2 protein (Homo sapiens, UniProt P10415); experiment: Bcl-2 competition binding assay (fluorescence polarization, Flu-1193 probe); details: for concentration-dependent competition binding: increasing compound concentrations, HA14-1 1 to 100 μM
T1 construct: purified soluble Bcl-2 proteins purchased from Santa Cruz Biotechnology, Inc., Calif; purchased Santa Cruz Biotechnology, Inc
T1 sequence (P10415 1-205 limits assumed): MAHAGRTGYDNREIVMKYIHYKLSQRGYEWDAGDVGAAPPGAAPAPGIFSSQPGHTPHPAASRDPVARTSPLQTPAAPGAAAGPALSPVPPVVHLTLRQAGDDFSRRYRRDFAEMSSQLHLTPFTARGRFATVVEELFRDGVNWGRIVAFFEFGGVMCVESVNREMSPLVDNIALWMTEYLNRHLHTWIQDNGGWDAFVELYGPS

697 cells [1] = experiment: DNA fragmentation assay in 697 cells; type: cell-based, human; details: 50 μM, 48 hours
Description: The Bcl-transfected cells were incubated with Bcl-2 inhibitor test compounds at 50 μM for 24 hours and then examined for apoptosis by the following DNA fragmentation assay. Then the treated cells were washed in PBS, lysed in digestion buffer (100 mM NaCl, 10 mM Tris-Cl, pH8, 25 mM EDTA, pH 8, 0.5% SDS, 0.1 mg/ml proteinase K), and incubated overnight at 50° C. The samples were extracted three times with phenol-chloroform, precipitated with an equal volume isopropanol, and spun down for 15 minutes in a microcentrifuge at room temperature. The DNA precipitate was washed once with 70% ethanol and resuspended in TE buffer containing 200 μg/ml DNase-free RNase A (Boehringer Mannheim, Indianapolis, Ind.). Alter incubation at 37° C. for 30 min., the DNA was loaded into a 2% agarose mini-gel with 2 μg/ml ethidium bromide, and electrophoresis is run at 50 V for 2 hours in 0.5×TBE buffer. The gel was destained with water for 1 hour arid photographed under UV light.
First, the ethidium bromide stain concentration was 1 μg/ml instead of 2 μg/ml. Second, the cells for the assay comprised 697 cells. The 697 line is a human pre-B leukemia line with a t(1; 19) chromosomal translocation (no translocation involving Bcl-2). Bcl-2 is highly expressed in this line. The high expression of Bcl-2 in 697 cells was confirmed by protein immunoblot analysis (data not shown). […] DNA markers were phiX174 DNA with restriction endonuclease Hae III (Boehringer Mannheim, Indianapolis, Ind.). The cells were incubated with test compound at 50 μM concentration or Taxol at 5 μM concentration for 48 hours.

[2] = tested on: HL-60 cell line transfected with Bcl-2; experiment: DNA fragmentation assay in Bcl-2-transfected HL-60 cells; type: cell-based, human; details: for DNA fragmentation (reversal of Bcl-2 block of apoptosis): 50 μM, 24 hours
HL-60 neo line = experiment: Control apoptosis experiment in HL-60 neo line; type: cell-based, human; details: 50 μM
697 cells [3] = details: positive control; cited from earlier work
[4] = tested on: HL-60 cell line (parent line); details: 50 μM etoposide; cited from earlier work
[5] = tested on: HL-60 cell line transfected with Bcl-2; details: 50 μM etoposide; cited from earlier work

SMILES: COc1ccc(CCNC(=O)c2sc3c([N+](=O)[O-])cc(C(F)(F)F)cc3[n+]2[O-])cc1OC [HA02]
- concentration-dependent competition binding (Bcl-2 protein): clear concentration-dependent competition binding was observed
- Kd (Bcl-2 protein; read-out: binding affinity (KD)): 15 µM
- DNA fragmentation / apoptosis induction (697 cells [1]): induced DNA fragmentation to various extents

SMILES: O=C1c2ccccc2SC(c2ccccc2)C1CN1CCN(C(C(=O)O)C(=O)O)CC1 (stereo not shown) [HA03]
- concentration-dependent competition binding (Bcl-2 protein): clear concentration-dependent competition binding was observed

SMILES: Nc1nc(N)c2c(Oc3ccccc3)cccc2n1 [HA04]
- concentration-dependent competition binding (Bcl-2 protein): clear concentration-dependent competition binding was observed
- DNA fragmentation / apoptosis induction (697 cells [1]): induced DNA fragmentation to various extents

SMILES: COc1cc(C2c3cc4c(cc3OC(N3CCOCC3)C2C)OCO4)cc(OC)c1O (stereo not shown) [HA11-57, 2,6-DI-MEO-4-(7-ME-6-MORPHOLIN-4-YL-6H- [1,3]DIOXOLO[4,5-G]CHROMEN-8-YL)-PHENOL]
- DNA fragmentation (reversal of Bcl-2 block of apoptosis) [2]: DNA fragmentation is apparent

SMILES: O=C1Nc2ccccc2/C1=C/c1ccc[nH]1 [HA12-16]
- DNA fragmentation / apoptosis induction (697 cells [1]; listed as HA01): induced DNA fragmentation to various extents; also recorded: induced apoptosis in the 697 cells
- apoptosis induction in cells not regulated by Bcl-2 (HL-60 neo line): lack of effect in inducing apoptosis

SMILES: CC(=O)c1cc(C(=O)c2ccccc2)n2ccc(Cc3ccc([N+](=O)[O-])cc3)cc12 [HA13]
- DNA fragmentation (reversal of Bcl-2 block of apoptosis) [2]: DNA fragmentation is apparent

SMILES: CCOC(=O)C1=C(N)Oc2ccc(Br)cc2C1C(C#N)C(=O)OCC (stereo not shown) [HA14-1, ETHYL 2-AMINO-6- BROMO-4-(1-CYANO-2- ETHOXY-2-OXOETHYL)- 4H-CHROMENE-3- CARBOXYLATE]
- concentration-dependent competition binding (Bcl-2 protein): clear concentration-dependent competition binding was observed
- DNA fragmentation after fluoromethyl ketone pretreatment ([2]; 100 μM fluoromethyl ketone 2 hours, then 50 μM HA14-1 24 hours): neutralize the action of HA14-1

SMILES: COC1OC2COC(c3ccccc3)O[C@H]2[C@@H](OC(C)=O)[C@H]1OS(=O)(=O)c1ccccc1 (stereo partly shown) [HA14]
- DNA fragmentation (reversal of Bcl-2 block of apoptosis) [2]: DNA fragmentation is apparent

SMILES: CC(=O)O[C@H]1C(=O)[C@@]2(C)[C@H]([C@H](OC(=O)c3ccccc3)[C@]3(O)C[C@H](OC(=O)[C@H](O)[C@@H](NC(=O)c4ccccc4)c4ccccc4)C(C)=C1C3(C)C)[C@]1(OC(C)=O)CO[C@@H]1C[C@@H]2O [Taxol]
- apoptosis induction in 697 cells (known) (697 cells [3]): known to induce apoptosis in 697 cells

SMILES: COc1cc([C@@H]2c3cc4c(cc3[C@@H](O[C@@H]3O[C@@H]5CO[C@@H](C)O[C@H]5[C@H](O)[C@H]3O)[C@H]3COC(=O)[C@H]23)OCO4)cc(OC)c1O [etoposide]
- sensitivity of cells to apoptosis-inducing drug [4]: sensitive
- sensitivity of Bcl-2-transfected cells to apoptosis-inducing drug [5]: resistant
